The values that follow come from ChEMBL document CHEMBL1201862, “PubChem BioAssay data set” (2004).

One assay concerns the target Trypsin (Sus scrofa, UniProt P00761). Briefly: trypsin protease activity blockade – biochemical, quenched peptide fluorescence, cherry-pick, selectivity assay for Rce1 protease inhibitor project, dose response (AID 488789).
For assay [1], the target named is CAAX prenyl protease 2 (Saccharomyces cerevisiae S288c, UniProt Q03530). In kind it is biochemical.
In assay [2] the target is T1, CAAX prenyl protease 2 (Homo sapiens, UniProt Q9Y256).
T1 sequence (Q9Y256 whole entry): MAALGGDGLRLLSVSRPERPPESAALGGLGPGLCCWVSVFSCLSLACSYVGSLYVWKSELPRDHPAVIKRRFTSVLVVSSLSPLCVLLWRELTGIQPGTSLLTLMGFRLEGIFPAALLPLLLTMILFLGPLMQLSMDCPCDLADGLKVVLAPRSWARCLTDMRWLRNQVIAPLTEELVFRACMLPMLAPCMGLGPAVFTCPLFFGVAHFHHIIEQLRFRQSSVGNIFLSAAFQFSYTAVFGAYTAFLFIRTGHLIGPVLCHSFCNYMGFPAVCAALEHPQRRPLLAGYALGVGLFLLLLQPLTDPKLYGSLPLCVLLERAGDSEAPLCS
In words: inhibition of Ras-converting CAAX protease Rce1 – biochemical, yeast membranes, quenched-peptide fluorescence, cherry-pick, dose response (AID 588849).

For assay [3], the target named is Eukaryotic translation initiation factor 4H (Homo sapiens, UniProt Q15056). In words: inhibitors of translation initiation factor eIF4H – SAR follow-up (AID 435011). The assay is classed as functional.
Assay [4] has as its target Polyadenylate-binding protein 1 (Homo sapiens, UniProt P11940). Briefly: PABP inhibition in translation initiation, SAR follow-up (AID 435018). In kind it is functional.
The next assay has as its target T2, Hexokinase HKDC1 (Homo sapiens, UniProt Q2TB90).
T2 sequence (Q2TB90 whole entry): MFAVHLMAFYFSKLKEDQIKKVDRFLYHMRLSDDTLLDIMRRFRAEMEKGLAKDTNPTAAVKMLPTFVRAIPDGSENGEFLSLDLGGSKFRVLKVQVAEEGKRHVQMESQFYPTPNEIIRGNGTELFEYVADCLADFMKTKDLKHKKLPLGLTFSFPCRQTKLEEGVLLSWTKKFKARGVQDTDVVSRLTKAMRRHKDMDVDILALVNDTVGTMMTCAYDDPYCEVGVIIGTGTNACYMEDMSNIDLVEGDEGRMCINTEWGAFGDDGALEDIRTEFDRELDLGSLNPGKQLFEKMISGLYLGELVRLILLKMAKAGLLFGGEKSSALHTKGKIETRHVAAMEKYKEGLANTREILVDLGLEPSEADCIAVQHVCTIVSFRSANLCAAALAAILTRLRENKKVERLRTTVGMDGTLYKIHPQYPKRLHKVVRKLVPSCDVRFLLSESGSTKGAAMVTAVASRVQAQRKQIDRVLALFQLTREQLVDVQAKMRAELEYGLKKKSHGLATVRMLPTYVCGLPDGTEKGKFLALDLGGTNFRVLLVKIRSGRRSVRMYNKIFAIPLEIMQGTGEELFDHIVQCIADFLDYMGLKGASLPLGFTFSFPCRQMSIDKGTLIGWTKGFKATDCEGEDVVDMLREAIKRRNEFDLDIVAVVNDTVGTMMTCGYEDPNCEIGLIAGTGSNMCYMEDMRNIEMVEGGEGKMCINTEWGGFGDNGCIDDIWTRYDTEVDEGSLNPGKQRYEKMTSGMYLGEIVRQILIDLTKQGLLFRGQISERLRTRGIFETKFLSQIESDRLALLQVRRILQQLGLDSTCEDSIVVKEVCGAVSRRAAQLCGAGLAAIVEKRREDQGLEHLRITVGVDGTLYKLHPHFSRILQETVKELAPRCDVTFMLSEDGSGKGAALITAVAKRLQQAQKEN
Briefly: inhibition of HKDC1 glucose phosphorylation – biochemical, W721R variant, dose response (AID 504729). The assay is classed as functional.

Activity calls are given as the source filed them. A value given as a limit tells only on which side of the number the result lay.

Chain of CAAX prenyl protease 2 (Saccharomyces cerevisiae S288c, UniProt Q03530) (Q03530 whole entry): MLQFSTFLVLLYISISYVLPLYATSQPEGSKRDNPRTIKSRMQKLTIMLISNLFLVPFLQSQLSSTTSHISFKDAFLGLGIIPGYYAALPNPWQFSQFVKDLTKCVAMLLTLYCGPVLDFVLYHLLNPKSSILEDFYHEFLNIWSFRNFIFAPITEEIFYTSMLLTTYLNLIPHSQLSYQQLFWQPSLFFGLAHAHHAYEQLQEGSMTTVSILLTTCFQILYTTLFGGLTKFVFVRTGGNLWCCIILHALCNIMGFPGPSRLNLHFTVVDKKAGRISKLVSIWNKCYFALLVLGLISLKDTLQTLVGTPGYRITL
Chain of Trypsin (P00761 whole entry): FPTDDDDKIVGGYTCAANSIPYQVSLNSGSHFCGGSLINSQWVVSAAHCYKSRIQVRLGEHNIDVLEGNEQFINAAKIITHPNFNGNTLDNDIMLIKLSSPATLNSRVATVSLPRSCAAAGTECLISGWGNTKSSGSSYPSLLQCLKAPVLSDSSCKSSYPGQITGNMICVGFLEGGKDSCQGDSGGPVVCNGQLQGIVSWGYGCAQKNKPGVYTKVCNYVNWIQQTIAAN
Chain of Polyadenylate-binding protein 1 (P11940 whole entry): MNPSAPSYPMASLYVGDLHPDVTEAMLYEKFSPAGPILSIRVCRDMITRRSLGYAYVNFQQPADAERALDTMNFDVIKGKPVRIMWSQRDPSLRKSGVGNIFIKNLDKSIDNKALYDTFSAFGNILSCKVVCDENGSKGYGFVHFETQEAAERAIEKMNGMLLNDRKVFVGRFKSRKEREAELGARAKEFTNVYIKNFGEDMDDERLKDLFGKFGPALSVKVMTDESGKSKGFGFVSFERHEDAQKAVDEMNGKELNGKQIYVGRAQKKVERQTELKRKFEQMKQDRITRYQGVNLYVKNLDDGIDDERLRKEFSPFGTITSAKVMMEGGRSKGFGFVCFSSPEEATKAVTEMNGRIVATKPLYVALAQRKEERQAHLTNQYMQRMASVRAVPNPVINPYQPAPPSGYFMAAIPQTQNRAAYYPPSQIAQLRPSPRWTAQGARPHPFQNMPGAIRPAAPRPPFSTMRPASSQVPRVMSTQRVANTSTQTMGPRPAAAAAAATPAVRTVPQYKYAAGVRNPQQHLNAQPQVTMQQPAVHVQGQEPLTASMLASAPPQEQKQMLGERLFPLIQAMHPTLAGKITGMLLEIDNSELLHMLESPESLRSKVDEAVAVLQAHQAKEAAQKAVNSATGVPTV

Take `CCn1c(=O)c(-c2ccccc2)c(O)c2ccccc21`: the results for the concentration at half-maximal activity (AC50) on Trypsin, at CAAX prenyl protease 2 [1] and at CAAX prenyl protease 2 [2] were 7.88 µM (active), 11.2 µM (active) and 13.9 µM (active), respectively.
Consider `Cc1ccc(-c2nc3ccc(C)cn3c2CC(=O)N(C)C)cc1`, for which the half-maximal activity concentration (AC50) on CAAX prenyl protease 2 [1] is 16.8 µM (active).
`COc1ccc(NC(=O)CSc2ccc(-c3ccco3)nn2)c(OC)c1`: the IC50 in assay [3] is 86.5 µM (active); in assay [4] it was > 100 µM (inactive); on Hexokinase HKDC1, 5.8 µM (active).
